The target of test [1] is T1, human dopamine D2L receptors (long isoform) (Homo sapiens, UniProt P14416).
T1 construct: expressed in transfected cells; membranes)
Briefly: Dopamine D2L receptor binding, [125I] iodospiperone displacement. Conditions: ratio of Ki at human D2L to Ki at human D3, HEK-293 membranes. On the procedure: (§1) Each as-say mixture was run in triplicate. • The incubation buffer contained 50 mM tris, 120 mM NaCl, 5 mM KCl, 2 mM CaCl2, 2 mM MgCl2 and 0.1% bovine serum albumin, 10 μM quinolone and 0.1% ascorbic acid (prepared fresh daily). […] Each assay mixture was run in triplicate. • The incubation buffer contained 50 mM tris, 120 mM NaCl, 5 mM KCl, 2 mM CaCl2, 2 mM MgCl2 and 0.1% bovine serum albumin. The buffer was adjusted to pH 7.4 with HCl. c) Measurement and Analysis: • After having been incubated at 25° C. for 60 minutes, the assay mixtures were filtered through a Whatman GF/B glass fiber filter under vacuum using a cell collecting device. The filters were transferred to scintillation viols using a filter transfer system. After 4 ml of Ultima Gold® (Packard) have been added, the samples were shaken for one hour and the radioactivity was then counted in a Beta-Counter (Packard, Tricarb 2000 or 2200CA).

For test [2], the target named is T2, human dopamine D3 receptors (Homo sapiens, UniProt P35462).
T2 construct: expressed in transfected cells; membranes)
Briefly: Dopamine D3 receptor binding, [125I]-iodosulpride displacement. Conditions: membranes of HEK-293 cells, 0.1 nM [125I]-iodosulpride. On the procedure:
as §1

Consider 7 compounds from patent US8492540B2, “1,2,4,-triazin-3,5-dione compounds suitable for treating disorders that respond to modulation of the dopamine D3 receptor” (Abbott GmbH & Co. KG, priority 2007, dated 2013).

The term Ki denotes the dissociation constant of the complex between target and ligand, obtained from inhibition or displacement.

T1 sequence (P14416 whole entry, canonical isoform): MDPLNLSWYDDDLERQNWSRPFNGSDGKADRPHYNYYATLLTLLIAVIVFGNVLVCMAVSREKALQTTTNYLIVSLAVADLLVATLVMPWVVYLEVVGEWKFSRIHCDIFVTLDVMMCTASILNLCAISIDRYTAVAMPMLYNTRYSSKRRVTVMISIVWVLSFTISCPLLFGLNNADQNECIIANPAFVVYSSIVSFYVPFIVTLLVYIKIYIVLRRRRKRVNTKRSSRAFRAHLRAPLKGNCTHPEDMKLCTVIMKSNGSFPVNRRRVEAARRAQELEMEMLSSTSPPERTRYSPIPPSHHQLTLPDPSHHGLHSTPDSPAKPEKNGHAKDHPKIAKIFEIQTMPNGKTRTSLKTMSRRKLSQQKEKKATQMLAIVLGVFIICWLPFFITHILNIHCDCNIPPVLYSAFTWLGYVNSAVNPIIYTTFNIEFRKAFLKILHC
T2 sequence (P35462 whole entry): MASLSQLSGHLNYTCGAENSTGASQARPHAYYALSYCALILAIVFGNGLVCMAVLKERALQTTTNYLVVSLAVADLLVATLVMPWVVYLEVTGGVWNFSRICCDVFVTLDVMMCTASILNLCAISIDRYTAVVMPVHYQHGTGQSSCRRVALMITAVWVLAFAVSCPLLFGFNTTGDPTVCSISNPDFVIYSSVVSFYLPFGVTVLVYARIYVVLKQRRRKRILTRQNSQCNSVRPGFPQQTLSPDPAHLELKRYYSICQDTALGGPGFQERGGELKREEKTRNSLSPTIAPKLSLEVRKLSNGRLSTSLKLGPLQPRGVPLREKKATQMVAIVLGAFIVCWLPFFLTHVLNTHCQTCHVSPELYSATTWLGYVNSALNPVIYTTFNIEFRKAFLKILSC

In the case of `CC(C)(C)c1nc(C(F)F)cc(N2CCN(CCCCn3ncc(=O)[nH]c3=O)CC2)n1.Cl` [Example 2, 2-{4-[4-(2-tert-Butyl-6-difluoromethyl-pyrimidin-4-yl)-piperazin-1-yl]butyl}-2H-[1,2,4]triazine-3,5-dione hydrochloride], the “Selectivity vs. D2L, Ki(D2L)/Ki(D3)” value in test [1] was “++ (++>20)”. The same compound registered a Ki in test [2] below 0.01 µM.
For `CC(C)(C)c1nc(C2CCC2)cc(N2CCN(CCCCn3ncc(=O)[nH]c3=O)CC2)n1` [Example 5, 2-{4-[4-(2-tert-Butyl-6-cyclobutyl-pyrimidin-4-yl)-piperazin-1-yl]butyl}-2H-[1,2,4]triazine-3,5-dione], in that order: “++ (++>20)” and below 0.01 µM.
For the compound `CC(C)(C)c1cc(N2CCN(CCCCn3ncc(=O)[nH]c3=O)CC2)nc(C(C)(C)C)n1.O=C(O)C(F)(F)F` [Example 4, 2-{4-[4-(2,6-Di-tert-butyl-pyrimidin-4-yl)-piperazin-1-yl]butyl}-2H-[1,2,4]triazine-3,5-dione trifluoroacetate], the “Selectivity vs. D2L, Ki(D2L)/Ki(D3)” value in test [1] is given as “++ (++>20)”. In addition, the Ki in test [2] is below 0.01 µM.
Regarding `CCCc1cc(N2CCN(CCCCn3ncc(=O)[nH]c3=O)CC2)nc(C(C)(C)C)n1` [Example 3, 2-{4-[4-(2-tert-Butyl-6-propyl-pyrimidin-4-yl)-piperazin-1-yl]butyl}-2H-[1,2,4]triazine-3,5-dione], the “Selectivity vs. D2L, Ki(D2L)/Ki(D3)” value in test [1] is recorded as “+++ (+++>50)”. The compound further yielded a Ki in test [2] below 0.01 µM.
For the compound `Cc1nn(CCCCN2CCN(c3cc(C(F)(F)F)nc(C(C)(C)C)n3)CC2)c(=O)[nH]c1=O.Cl` [Example 6, 2-{4-[4-(2-tert-Butyl-6-trifluoromethyl-pyrimidin-4-yl)-piperazin-1-yl]butyl}-6-methyl-2H-[1,2,4]triazine-3,5-dione hydrochloride], the “Selectivity vs. D2L, Ki(D2L)/Ki(D3)” value in test [1] was “++ (++>20)”. Besides, the Ki in test [2] is below 0.01 µM.
`CC(C)(C)c1nc(N2CCN(CCCCn3ncc(=O)[nH]c3=O)CC2)cc(C(F)(F)F)n1.Cl` [Example 1, 2-{4-[4-(2-tert-Butyl-6-trifluoromethyl-pyrimidin-4-yl)-piperazin-1-yl]butyl}-2H-[1,2,4]triazine-3,5-dione hydrochloride]: in test [1], the “Selectivity vs. D2L, Ki(D2L)/Ki(D3)” value is “++ (++>20)”. The inhibitory constant (Ki) in test [2] is below 0.01 µM.
Consider `CCCc1cc(N2CCN(CCCCn3nc(C)c(=O)[nH]c3=O)CC2)nc(C(C)(C)C)n1.Cl` [Example 7, 2-{4-[4-(2-tert-Butyl-6-propyl-pyrimidin-4-yl)-piperazin-1-yl]butyl}-6-methyl-2H-[1,2,4]triazine-3,5-dione hydrochloride], for which the “Selectivity vs. D2L, Ki(D2L)/Ki(D3)” value in test [1] is given as “++ (++>20)”. In addition, the Ki in test [2] is below 0.01 µM.
